The assay deals with T1, xanthine oxidase (Bos taurus, UniProt P80457).
T1 construct: gene XDH
As to the kind of experiment: biochemical.

Drawing on publication PMC10143053, “Probing the Interactions of 31 Mycotoxins with Xanthine Oxidase: Alternariol, Alternariol-3-Sulfate, and α-Zearalenol Are Allosteric Inhibitors of the Enzyme” (Toxins, 2023), this text covers IC50 for three compounds.

Where two headings read alike, the source gives them in different places.

T1 sequence (P80457 2-1332): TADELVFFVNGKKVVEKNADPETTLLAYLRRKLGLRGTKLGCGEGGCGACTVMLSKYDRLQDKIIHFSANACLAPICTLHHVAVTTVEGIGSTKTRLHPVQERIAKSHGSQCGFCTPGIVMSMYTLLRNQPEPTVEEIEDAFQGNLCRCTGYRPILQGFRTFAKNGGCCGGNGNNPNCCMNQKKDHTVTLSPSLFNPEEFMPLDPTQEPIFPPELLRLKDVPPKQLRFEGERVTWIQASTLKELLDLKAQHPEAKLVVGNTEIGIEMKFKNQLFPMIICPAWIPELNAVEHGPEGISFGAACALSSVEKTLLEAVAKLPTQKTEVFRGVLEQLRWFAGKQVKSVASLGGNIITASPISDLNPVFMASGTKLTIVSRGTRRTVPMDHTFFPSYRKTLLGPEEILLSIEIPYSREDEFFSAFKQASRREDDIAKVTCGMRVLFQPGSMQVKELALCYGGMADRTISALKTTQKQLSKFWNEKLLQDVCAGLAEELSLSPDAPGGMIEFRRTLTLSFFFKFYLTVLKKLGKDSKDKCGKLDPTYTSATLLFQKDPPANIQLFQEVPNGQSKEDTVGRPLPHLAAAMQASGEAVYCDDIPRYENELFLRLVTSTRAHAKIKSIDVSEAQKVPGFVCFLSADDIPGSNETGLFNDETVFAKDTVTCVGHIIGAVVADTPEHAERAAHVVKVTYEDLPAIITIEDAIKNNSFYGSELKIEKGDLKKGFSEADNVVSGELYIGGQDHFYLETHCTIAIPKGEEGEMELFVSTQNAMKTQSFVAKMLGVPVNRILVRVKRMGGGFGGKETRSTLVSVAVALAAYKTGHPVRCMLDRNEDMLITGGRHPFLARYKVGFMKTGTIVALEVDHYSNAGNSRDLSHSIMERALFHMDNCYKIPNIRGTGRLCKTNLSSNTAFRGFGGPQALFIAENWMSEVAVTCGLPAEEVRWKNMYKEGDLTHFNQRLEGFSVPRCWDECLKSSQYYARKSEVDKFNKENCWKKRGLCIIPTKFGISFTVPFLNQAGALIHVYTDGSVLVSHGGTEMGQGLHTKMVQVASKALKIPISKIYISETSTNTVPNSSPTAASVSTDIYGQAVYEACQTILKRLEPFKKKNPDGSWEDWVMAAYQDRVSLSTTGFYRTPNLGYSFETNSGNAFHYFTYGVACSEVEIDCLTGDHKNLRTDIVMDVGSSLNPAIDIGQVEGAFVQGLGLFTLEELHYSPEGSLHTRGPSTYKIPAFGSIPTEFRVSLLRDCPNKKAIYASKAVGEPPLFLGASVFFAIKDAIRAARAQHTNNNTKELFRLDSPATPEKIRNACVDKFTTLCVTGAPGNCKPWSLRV

Take `Cc1cc(OS(=O)(=O)O)cc2oc(=O)c3c(O)cc(O)cc3c12` [AS, alternariol-3-sulfate]: the half-maximal inhibitory concentration (IC50) (read-out: IC50) was found to be 15 µM. In turn, `Cc1cc(O)cc2oc(=O)c3c(O)cc(O)cc3c12` [AOH, alternariol] gave a concentration for half-maximal inhibition (IC50) of 10.6 µM. Turning to `C[C@H]1CCC[C@H](O)CCC/C=C/c2cc(O)cc(O)c2C(=O)O1` [α-ZEL, α-zearalenol], the IC50 (read-out: IC50) came out at 17.1 µM.
